# Laboratory results published in patent US9132138B2, “Method for the treatment of multiple sclerosis” (CASI Pharmaceuticals, Inc., priority 2012, dated 2015).
# Key:
# purified CD4^+ T cells = test: Proliferation of purified CD4+ T cells by 3H-thymidine incorporation; type: cell-based, C57/BL6 mice; details: 24 hours or 48 hours post-stimulation
# Experimental: FIGS. 2A-2E, show proliferation and activation of T cells are inhibited by 2ME2. FIG. 2A, CD4^+ T cells were pre-treated with the indicated concentrations of 2ME2 and stimulated with plate-bound anti-CD3/28 or PMA/iono. Proliferation was assayed 24 hours (left) or 48 hours (right) later by 3H-thymidine incorporation. FIG. 2B, CD4^+ and CD8^+ T cells were stimulated with anti-CD3/28 in the presence of increasing concentrations of 2ME2. CD25 expression was assessed at 6 hours or 24 hours post-stimulation by flow cytometry. FIG. 2C, Quantification of CD25 expression in purified CD4^+ T cells pre-treated with increasing concentrations of 2ME2, and stimulated with anti CD3/28 or PMA/iono for 6 or 24 hours. […] Viability was determined 24 hours or 48 hours post-stimulation by flow cytometry. […] Proliferation was determined 24 hours or 48 hours later by 3H-thymidine incorporation. […]
# Purified CD4^+ T cells were stimulated with plate-bound anti-CD3 (clone 2C11, BD, 10 ng/ml) plus anti-CD28 (clone 37.51, BD, 100 ng/ml). […] CD25 and CD69 expression was determined by flow cytometry (FACSCanto II, BD) and analyzed using FloJo software (Treestar Inc). Proliferation was assessed by 3H-thymidine incorporation. Viability and upregulation of cell surface markers on activated T cells were assessed by flow cytometry using Annexin V and propridium iodide. […]
# GPER1 = target: T1, GPER1 (Mus musculus, UniProt Q8BMP4); test: GPER1 dependence: CD25/CD69 on CD4+ T cells with G15 or G1; type: cell-based, C57/BL6 mice; details: at 6 hours
# T1 construct: Purified C57/BL6 CD4^+ T cells were preincubated with the GPER1 antagonist G15; endogenous in cells; host or cells: purified primary CD4+ T cells from C57/BL6 mice
# T1 sequence (Q8BMP4 1-375): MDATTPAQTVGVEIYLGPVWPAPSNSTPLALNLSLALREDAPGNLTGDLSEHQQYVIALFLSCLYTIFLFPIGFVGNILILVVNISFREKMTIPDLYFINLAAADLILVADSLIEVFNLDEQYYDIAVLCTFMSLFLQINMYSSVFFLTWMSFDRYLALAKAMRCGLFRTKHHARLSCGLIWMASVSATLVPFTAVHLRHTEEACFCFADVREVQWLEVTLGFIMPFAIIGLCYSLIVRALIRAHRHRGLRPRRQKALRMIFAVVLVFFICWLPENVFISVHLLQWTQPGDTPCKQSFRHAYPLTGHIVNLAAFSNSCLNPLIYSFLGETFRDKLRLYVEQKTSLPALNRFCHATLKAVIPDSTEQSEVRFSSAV
# Experimental: FIGS. 6A and 6B show purified CD4^+ T cells that were pretreated with 2-50 μM 2ME2 and/or the GPER1 antagonist G15, and subsequently stimulated with anti-CD3/28 for 6 hours. Activation of CD4^+ T cells was assessed by CD25 and CD69 upregulation, measured by flow cytometry. US, unstimulated. Data is shown as mean±SD for triplicate determinations, and is representative of two separate experiments.
# Purified C57/BL6 CD4^+ T cells were preincubated with the GPER1 antagonist G15 (100 nM, Tocris) and 2ME2 (0-50 μM), or the GPER1 agonist G1 (1-100 nM, Tocris) for 30 minutes, and activated with plate bound anti-CD3 plus soluble anti-CD28. 6 hours later, cells were harvested, stained with anti-CD4 and anti-CD25. CD25 expression was monitored on a HTS FACSCanto II (BD) and analyzed with FloJo (Treestar Inc).
# AP-1 = test: EMSA of T cell nuclear extracts; type: cell-based, C57/BL6 mice; details: 2ME2 50 μM, PMA/iono
# Experimental: FIG. 4A, purified T cells pre-treated with 2ME2 (50 μM) were stimulated with PMA/iono for the indicated times. Whole cell lysates were subjected to immunoblotting to detect the indicated proteins. FIG. 4B, nuclear lysates were analyzed by EMSA to detect DNA binding to NF-κB or AP-1. FP, free probe. FIG. 4C, purified T cells or B cells were pre-treated with vehicle (−) or 50 μM 2ME2 (+) and were stimulated with PMA/iono for 30 or 60 minutes (left), or with anti-CD3/28 or anti-IgM/CD40 for 24 hours (right). Nuclear fractions of lymphocytes were analyzed by immunoblotting to detect nuclear translocation of NFATc1. Lamin A, nuclear protein loading control. NS; non-specific band. For FIGS. 4A-4C, data are representative of at least two independent experiments. FIG. 4D, stably transfected NFAT and NF-κB Jurkat luciferase reporter cell lines were preincubated with 2ME2 for 30 minutes, and stimulated via crosslinking of anti-CD3/28 antibodies with goat anti-mouse antibodies (GaM). 5 hours later, secreted luciferase activity indicates relative transcriptional activity. Data is reported as normalized luciferase activity and is representative of 3 independent experiments.
# Nuclear extracts of T cells stimulated with PMA (10 ng/ml)+calcium ionophore A23187 (iono, Sigma) (50 ng/ml) for 30 or 60 minutes were prepared according to a standard protocol. […]
# [1] = oral 2ME2, mice and humans; cited from earlier work
smiles,measurement,setting,value
"COc1cc2c(cc1O)CC[C@@H]1[C@@H]2CC[C@]2(C)[C@@H](O)CC[C@@H]12 [2ME2, 2-Methoxyestradiol]",anti-CD3/28 or PMA+iono-dependent proliferation,purified CD4^+ T cells,dose-dependent inhibition
same,cell viability,GPER1,"Neither 2ME2, G1 nor G15 affected cell viability"
same,AP-1 binding to DNA,AP-1,modest increase
same,bioavailability,[1],1.5%
